What was measured:
eGFP+ human islet cells = assay: Insulin immunostaining of eGFP+ islet cells incubated with diazoxide after viral infection; assay type: cell-based; design: dose or concentration left out as unconfirmed; conditions: diazoxide following viral infection, days 5-6 of culture
[1] = test system: Beta cell derived labeled cells at P5; assay: Insulin expression (RT-PCR) in beta cell derived labeled cells treated with gamma-secretase inhibitor; assay type: cell-based, human; conditions: 300 nM, 4 days, vs untreated or DMSO
Protocol: Beta cell derived labeled cells at P5 treated for 4 days with 300 nM gamma-secretase inhibitor (S,S)-2-[2-(3,5-difluorophenyl)acetylamino]-N-(5-methyl-6-oxo-6,7-dihydro-5H-dibenzo [b,d]azepin-7-yl)propionamide (DBZ). Control cells were either untreated, or treated with DMSO (solvent). Medium with compound was changed every 48 hours.
RT-PCR analyses: As described for Example 1.

[2] = test system: cultured human islet cells; assay: Immunoblotting for cleaved PARP (apoptosis) in islet cells; assay type: cell-based
Protocol: (§1) HES1 inhibition and lineage tracing: HES1 shRNA ([…])—SEQ ID NO: 7 and a non-target shRNA, cloned in pLKO.1 lentiviral vector, were obtained from the RNAi Consortium (Sigma-Aldrich). Virus was produced in 293T cells following cotransfection with the pCMVdR8.91 and pMD2.G packaging plasmids. The culture medium was harvested 48 hours later. Islet cells cultured for 1-2 days were washed with PBS and infected at MOI 2.5:1 in CMRL 1066 medium containing 8 μg/ml polybrene overnight. The medium was then replaced with regular culture medium. Four days after infection, the cells were selected for puromycin resistance (1 μg/ml) for 3 days. Two weeks after infection the cells were harvested for further analysis. Lineage tracing was performed using the RIP-Cre and a pTrip CMV-loxP-DsRed2-loxP-eGFP viruses as described herein below. Briefly, islet cells cultured for 1-2 days were infected with a 1:1:1 mixture of the 3 viruses (shRNA+RIP-Cre+pTrip CMV-loxP-DsRed2-loxP-eGFP) at a total MOI 4:1. Selection and further analysis were carried out as above.
(§2) Immunoblotting: Total cellular protein was extracted in 0.5% NP40 containing a protease inhibitor cocktail (Roche). Protein concentration was determined by the BCA method (Pierce, Rockford, Ill.). […] Loading was monitored using goat-anti-beta-actin (Santa Cruz, 1:1000). […]

HES1 [3] = assay: Screening of 4 HES1 shRNA sequences in 293T cells, HES1 immunoblotting; assay type: cell-based
Protocol: Immunoblotting: Total cellular protein was extracted in 0.5% NP40 containing a protease inhibitor cocktail (Roche). Protein concentration was determined by the BCA method (Pierce, Rockford, Ill.). 70 μg protein were separated on 12% sodium dodecyl sulphate-polyacrylamide gels and electroblotted onto PDF membranes. The membranes were incubated with rabbit-anti-HES1 (1:1000) or rabbit-anti-PARP (Cell Signaling, 1:1000). Loading was monitored using goat-anti-beta-actin (Santa Cruz, 1:1000). The bound antibody was visualized with the appropriate horseradish peroxidase-conjugated anti-IgG (Jackson) and SuperSignal West Pico Chemiluminescent Substrate (Pierce). Cells treated with 1 μm staurosporine for 6 hours were used as positive control for the PARP blot.
Inhibition of HES1 expression prevents induction of beta-cell replication: To further correlate the induction of beta-cell replication with HES1 upregulation, HES1 induction during the initial weeks of culture was inhibited using shRNA. […] Isolated human islets were dissociated, and the cells were infected with a lentivirus encoding HES1 shRNA before culture under standard conditions. Selection for drug resistance allowed elimination of uninfected cells. Cells infected with a non-target shRNA lentivirus and selected under similar conditions served as control. […]

HES1 [4] = assay: Immunoblotting for HES1 in islet cells infected at culture initiation with HES1 shRNA virus; assay type: cell-based, human; conditions: islet cells infected after 1-2 days of culture, analysed 14 days after infection
Protocol: as §1, §2

[5] = test system: cultured human islet cells; assay: Replication of cultured islet cells (BrdU incorporation, Ki67 staining) after HES1 shRNA infection; assay type: cell-based; conditions: 14 days after infection
Protocol: as §1
(§3) Immunofluorescence: Cells were plated in 24-well plates on sterilized coverslips and fixed in 4% paraformaldehyde. Cells were permeabilized with 0.25% NP40 for 10 minutes and blocked for 10 minutes at room temperature in 1% bovine serum albumin, 10% FBS, and 0.2% saponin. […]

[6] = test system: cultured human islet cells; assay: qPCR analysis of RNA from islet cells 14 days after HES1 shRNA infection; assay type: cell-based; conditions: 14 days after infection
Protocol: as §1
RNA analyses: Total RNA was extracted using High Pure RNA isolation kit (Roche). cDNA was synthesized using SuperScript III (Invitrogen). qPCR was performed using a Prism 7300 ABI Real Time PCR System (Applied Biosystems). Relative quantitative analysis was performed according to the comparative CT method by using the arithmetic formula 2̂^−(ΔΔct). The cDNA levels were normalized to human ribosomal protein P0 (RPLP0) cDNA.

[7] = test system: cultured human islet cells; assay: Insulin immunostaining of islet cells and eGFP+ cells after HES1 shRNA infection; assay type: cell-based
Protocol: as §1, §3

[8] = test system: dedifferentiated human islet cells expanded in culture; assay: Redifferentiation of dedifferentiated expanded human islet cells by HES1 shRNA (immunoblotting, RT-PCR, insulin ELISA, morphology); assay type: cell-based
Protocol: Human islet cells were cultured for 4-5 weeks as described for Example 1. They were then infected with lentiviruses expressing HES1 (SEQ ID NO: 7) or nontarget shRNAs. Nine days following infection the cells were analyzed as described for Example 1. Primers used for RT-PCR analysis are described in Table 1, herein above, […]

[9] = test system: sorted eGFP+ cells derived from beta cells; assay: HES1 shRNA in sorted eGFP+ cells expanded 7 population doublings, qRT-PCR and morphology; assay type: cell-based, human
Protocol: Virus was produced in 293T cells following cotransfection with the pCMVdR8.91 and pMD2.G packaging plasmids. The culture medium was harvested 48 hours later. […] They were then infected with HES1 or nontarget shRNA viruses, and 4 days later trypsinized and shifted to serum free medium (SFM). RNA was extracted following 4 more days and analyzed by qRT-PCR.
RNA analyses: As described for Example 1.

[10] = cells cultured 4-5 weeks, 9 days after infection, immunoblotting

CC1=NS(=O)(=O)c2cc(Cl)ccc2N1 [diazoxide]
fraction of eGFP+ cells that were insulin-positive (eGFP+ human islet cells): 84.8±5.8%

C[C@H](NC(=O)Cc1cc(F)cc(F)c1)C(=O)N[C@@H]1C(=O)N(C)c2ccccc2-c2ccccc21 [gamma secretase inhibitor, (S,S)-2-[2-(3,5-difluorophenyl)acetylamino]-N-(5-methyl-6-oxo-6,7-dihydro-5H-dibenzo [b,d]azepin-7-yl)propionamide]
insulin expression [1]: increase

CN[C@@H]1C[C@H]2O[C@@](C)([C@@H]1OC)n1c3ccccc3c3c4c(c5c6ccccc6n2c5c31)C(=O)NC4 [staurosporin, staurosporine, reference compound]
PARP cleavage, immunoblotting (positive control) ([2]; uninfected cells, 1 μm staurosporine for 6 hours): cleaved PARP

TGGCCAGTTTGCTTTCCTCAT (chemistry not given here) [HES1 shRNA, HES1 shRNA cloned in pLKO.1 lentiviral vector, obtained from the RNAi Consortium (Sigma-Aldrich)]
efficiency among 4 HES1 shRNA sequences, based on reduction in HES1 protein levels (HES1 [3]): most efficient | HES1 protein levels, lower compared with cells infected with the control virus (HES1 [4]): up to 6 × | replication rate, Ki67 staining in eGFP+ cells derived from beta cells [5]: lower replication rate | cell proliferation, staining for BrdU incorporation ([5]; compared with control vector): diminished cell proliferation | cell apoptosis, immunoblotting for cleaved PARP ([2]; HES1 shRNA virus vs non-target virus, 14 days after infection): did not correlate with an increase in cell apoptosis | insulin transcripts, lower compared with primary islets [6]: 20 fold | levels of NOTCH transcripts [6]: did not affect | levels of PDX1 and NEUROD1 transcripts relative to primary islets [6]: comparable to those in primary islets | insulin transcripts, higher compared with cells infected with control virus ([6]; p<0.01): 5.7 fold | p57 transcripts, higher than in cells infected with control virus ([6]; p<0.04): 5.7 fold | PDX1 transcript levels, higher than control virus ([6]; p<0.05): 5.6 fold | NEUROD1 transcript levels, higher than control virus ([6]; p<5.45×10^−5): 3.7 fold | fraction of insulin-positive cells among eGFP+ cells, higher [7]: 3 fold | number of insulin-positive cells, higher than control virus ([7]; p<0.016): 4 fold | insulin expression by insulin ELISA and immunostaining ([8]; 9 days after infection): increase | NEUROD1 transcripts ([8]; 9 days after infection, RT-PCR): significant increase | PDX1 transcripts ([8]; 9 days after infection, RT-PCR): significant increase | insulin transcripts ([8]; 9 days after infection, RT-PCR): significant increase | p57, RNA analysis ([8]; 9 days after infection, RT-PCR): increase | cellular HES1 protein levels [8, 10]: decrease | p57 levels (protein) [8, 10]: increase | morphological change ([8]; cells expressing HES1 shRNA): tended to form clusters | upregulation of transcripts encoding insulin, PDX1, NEUROD1, IAPP, and PC1 ([9]; eGFP+ vs eGFP− cells, qRT-PCR): occurred preferentially in eGFP^+ cells | induction of beta-cell transcripts, combination of SFM with HES1 shRNA ([9]; shRNA infection, 4 days later shifted to SFM, RNA after 4 more days): pronounced additive effect | morphological changes in response to HES1 shRNA, eGFP+ compared with eGFP− cells ([9]; sorted cells): much more pronounced in eGFP^+ cells
